According to ChEMBL document CHEMBL3885881, “DrugMatrix”:

Organism: Rattus norvegicus
Test: DrugMatrix - Regimen: Daily Repeat
Type: toxicity, organism-based, Sprague-Dawley
Set-up: regimen Daily Repeat, gender Male, age 6-8 weeks
Conditions: in vivo, po, route oral GAVAGE; for BASOPHIL / EOSINOPHIL / ERYTHROCYTE COUNT / HEMATOCRIT / HEMOGLOBIN / LEUKOCYTE COUNT / LYMPHOCYTE / MEAN CORPUSCULAR HEMOGLOBIN / MEAN CORPUSCULAR HEMOGLOBIN CONCENTRATION / MEAN CORPUSCULAR VOLUME / MONOCYTE / NEUTROPHIL / PLATELET COUNT / ABSOLUTE BASOPHIL / ABSOLUTE EOSINOPHIL / ABSOLUTE LYMPHOCYTE / ABSOLUTE MONOCYTE / ABSOLUTE SEGMENTED NEUTROPHIL / NUCLEATED RED BLOOD CELLS: tissue Blood; for ALANINE AMINOTRANSFERASE / ALBUMIN / ALKALINE PHOSPHATASE / ASPARTATE AMINOTRANSFERASE / BLOOD UREA NITROGEN / CHLORIDE / CHOLESTEROL / CREATINE PHOSPHOKINASE / CREATININE / GLUCOSE / PHOSPHORUS / POTASSIUM / SODIUM / TOTAL BILIRUBIN / TOTAL PROTEIN / CARBON DIOXIDE / LACTATE DEHYDROGENASE / LIPASE / URIC ACID: tissue Plasma
[1] = 69 mg/kg, 72 h, dose level High, time 3 day, vehicle .5 % CMC
[2] = 69 mg/kg, 120 h, dose level High, time 5 day, vehicle .5 % CMC
[3] = […], 72 h, dose 6.9 mg/Kg, dose level Low, time 3 day, vehicle .5 % CMC
[4] = […], 120 h, dose 6.9 mg/Kg, dose level Low, time 5 day, vehicle .5 % CMC
[5] = […], 72 h, dose 1.2 mg/Kg, dose level Low, time 3 day
[6] = […], 120 h, dose 1.2 mg/Kg, dose level Low, time 5 day

## COc1ccc(Cc2nccc3cc(OC)c(OC)cc23)cc1OC [PAPAVERINE]
[1]
  BASOPHIL: 0%
  EOSINOPHIL: 0.33%
  ERYTHROCYTE COUNT: 6.13 x10E6/uL
  HEMATOCRIT: 36.97%
  HEMOGLOBIN: 14.43 G/DL
  LEUKOCYTE COUNT: 10.73 x10E3/uL
  LYMPHOCYTE: 85%
  MEAN CORPUSCULAR HEMOGLOBIN: 23.67 pg
  MEAN CORPUSCULAR HEMOGLOBIN CONCENTRATION: 39.07 G/DL
  MEAN CORPUSCULAR VOLUME: 60.5 fL
  MONOCYTE: 1%
  NEUTROPHIL: 13.67%
  PLATELET COUNT: 1169 x10E3/uL
  ALANINE AMINOTRANSFERASE: 36.33 u/L
  ALBUMIN: 3.83 G/DL
  ALKALINE PHOSPHATASE: 289.67 u/L
  ASPARTATE AMINOTRANSFERASE: 57.33 u/L
  BLOOD UREA NITROGEN: 13.67 mg/dL
  CHLORIDE: 107.67 MEQ/L
  CHOLESTEROL: 66.33 mg/dL
  CREATINE PHOSPHOKINASE: 129.67 u/L
  CREATININE: 0.5 mg/dL
  GLUCOSE: 195.67 mg/dL
  PHOSPHORUS: 11.97 mg/dL
  POTASSIUM: 6.9 MEQ/L
  SODIUM: 152.33 MEQ/L
  TOTAL BILIRUBIN: 0.3 mg/dL
  TOTAL PROTEIN: 6.13 G/DL
[2]
  BASOPHIL: 0%
  EOSINOPHIL: 0%
  ERYTHROCYTE COUNT: 5.8 x10E6/uL
  HEMATOCRIT: 35.07%
  HEMOGLOBIN: 14.43 G/DL
  LEUKOCYTE COUNT: 15.23 x10E3/uL
  LYMPHOCYTE: 84.33%
  MEAN CORPUSCULAR HEMOGLOBIN: 24.97 pg
  MEAN CORPUSCULAR HEMOGLOBIN CONCENTRATION: 41.27 G/DL
  MEAN CORPUSCULAR VOLUME: 60.43 fL
  MONOCYTE: 3.67%
  NEUTROPHIL: 12%
  PLATELET COUNT: 973 x10E3/uL
  ALANINE AMINOTRANSFERASE: 34 u/L
  ALBUMIN: 3.67 G/DL
  ALKALINE PHOSPHATASE: 334 u/L
  ASPARTATE AMINOTRANSFERASE: 56.33 u/L
  BLOOD UREA NITROGEN: 12.33 mg/dL
  CHLORIDE: 105.33 MEQ/L
  CHOLESTEROL: 57.67 mg/dL
  CREATINE PHOSPHOKINASE: 142.67 u/L
  CREATININE: 0.57 mg/dL
  GLUCOSE: 174.33 mg/dL
  PHOSPHORUS: 11.33 mg/dL
  POTASSIUM: 7 MEQ/L
  SODIUM: 149.67 MEQ/L
  TOTAL BILIRUBIN: 0.43 mg/dL
  TOTAL PROTEIN: 5.8 G/DL
[3]
  BASOPHIL: 0%
  EOSINOPHIL: 0.33%
  ERYTHROCYTE COUNT: 5.94 x10E6/uL
  HEMATOCRIT: 35.17%
  HEMOGLOBIN: 14.13 G/DL
  LEUKOCYTE COUNT: 12.43 x10E3/uL
  LYMPHOCYTE: 87.33%
  MEAN CORPUSCULAR HEMOGLOBIN: 23.8 pg
  MEAN CORPUSCULAR HEMOGLOBIN CONCENTRATION: 40.2 G/DL
  MEAN CORPUSCULAR VOLUME: 59.13 fL
  MONOCYTE: 2.33%
  NEUTROPHIL: 10%
  PLATELET COUNT: 1083 x10E3/uL
  ALANINE AMINOTRANSFERASE: 43.67 u/L
  ALBUMIN: 3.7 G/DL
  ALKALINE PHOSPHATASE: 347.67 u/L
  ASPARTATE AMINOTRANSFERASE: 64.67 u/L
  BLOOD UREA NITROGEN: 11.67 mg/dL
  CHLORIDE: 107 MEQ/L
  CHOLESTEROL: 64.33 mg/dL
  CREATINE PHOSPHOKINASE: 170 u/L
  CREATININE: 0.5 mg/dL
  GLUCOSE: 172 mg/dL
  PHOSPHORUS: 11.1 mg/dL
  POTASSIUM: 6.23 MEQ/L
  SODIUM: 149 MEQ/L
  TOTAL BILIRUBIN: 0.37 mg/dL
  TOTAL PROTEIN: 5.77 G/DL
[4]
  BASOPHIL: 0%
  EOSINOPHIL: 0.33%
  ERYTHROCYTE COUNT: 6.2 x10E6/uL
  HEMATOCRIT: 37.4%
  HEMOGLOBIN: 15.4 G/DL
  LEUKOCYTE COUNT: 12.83 x10E3/uL
  LYMPHOCYTE: 87.33%
  MEAN CORPUSCULAR HEMOGLOBIN: 24.87 pg
  MEAN CORPUSCULAR HEMOGLOBIN CONCENTRATION: 41.17 G/DL
  MEAN CORPUSCULAR VOLUME: 60.33 fL
  MONOCYTE: 1.33%
  NEUTROPHIL: 11%
  PLATELET COUNT: 1006 x10E3/uL
  ALANINE AMINOTRANSFERASE: 35 u/L
  ALBUMIN: 3.73 G/DL
  ALKALINE PHOSPHATASE: 374.33 u/L
  ASPARTATE AMINOTRANSFERASE: 60.33 u/L
  BLOOD UREA NITROGEN: 12.33 mg/dL
  CHLORIDE: 108.33 MEQ/L
  CHOLESTEROL: 61.33 mg/dL
  CREATINE PHOSPHOKINASE: 131.67 u/L
  CREATININE: 0.6 mg/dL
  GLUCOSE: 168.67 mg/dL
  PHOSPHORUS: 10.03 mg/dL
  POTASSIUM: 6.13 MEQ/L
  SODIUM: 153.67 MEQ/L
  TOTAL BILIRUBIN: 0.33 mg/dL
  TOTAL PROTEIN: 5.97 G/DL

## CNC(=C[N+](=O)[O-])NCCSCc1csc(CN(C)C)n1 [NIZATIDINE]
[5]
  ABSOLUTE BASOPHIL: 0 CELLS/uL
  ABSOLUTE EOSINOPHIL: 34 CELLS/uL
  ABSOLUTE LYMPHOCYTE: 10569 CELLS/uL
  ABSOLUTE MONOCYTE: 72 CELLS/uL
  ABSOLUTE SEGMENTED NEUTROPHIL: 2425 CELLS/uL
  BASOPHIL: 0%
  EOSINOPHIL: 0.33%
  ERYTHROCYTE COUNT: 5.9 x10E6/uL
  HEMATOCRIT: 35.07%
  HEMOGLOBIN: 13.63 G/DL
  LEUKOCYTE COUNT: 13.1 x10E3/uL
  LYMPHOCYTE: 80.33%
  MEAN CORPUSCULAR HEMOGLOBIN: 23.13 pg
  MEAN CORPUSCULAR HEMOGLOBIN CONCENTRATION: 38.87 G/DL
  MEAN CORPUSCULAR VOLUME: 59.5 fL
  MONOCYTE: 0.67%
  NEUTROPHIL: 18.67%
  NUCLEATED RED BLOOD CELLS: 0.67 /100WBC
  PLATELET COUNT: 1288.67 x10E3/uL
  ALANINE AMINOTRANSFERASE: 58.33 u/L
  ALBUMIN: 4.07 G/DL
  ALKALINE PHOSPHATASE: 348.67 u/L
  ASPARTATE AMINOTRANSFERASE: 87.67 u/L
  BLOOD UREA NITROGEN: 12.67 mg/dL
  CARBON DIOXIDE: 26 mmol/L
  CHLORIDE: 101 MEQ/L
  CHOLESTEROL: 72.67 mg/dL
  CREATINE PHOSPHOKINASE: 343.33 u/L
  CREATININE: 0.16 mg/dL
  GLUCOSE: 162.67 mg/dL
  LACTATE DEHYDROGENASE: 208 u/L
  LIPASE: 10 u/L
  PHOSPHORUS: 13.27 mg/dL
  POTASSIUM: 7.68 MEQ/L
  SODIUM: 143.37 MEQ/L
  TOTAL BILIRUBIN: 0.2 mg/dL
  TOTAL PROTEIN: 5.6 G/DL
  URIC ACID: 2 mg/dL
[6]
  ABSOLUTE BASOPHIL: 0 CELLS/uL
  ABSOLUTE EOSINOPHIL: 0 CELLS/uL
  ABSOLUTE LYMPHOCYTE: 14620.33 CELLS/uL
  ABSOLUTE MONOCYTE: 0 CELLS/uL
  ABSOLUTE SEGMENTED NEUTROPHIL: 2246.33 CELLS/uL
  BASOPHIL: 0%
  EOSINOPHIL: 0%
  ERYTHROCYTE COUNT: 5.78 x10E6/uL
  HEMATOCRIT: 35.77%
  HEMOGLOBIN: 14.27 G/DL
  LEUKOCYTE COUNT: 16.87 x10E3/uL
  LYMPHOCYTE: 87%
  MEAN CORPUSCULAR HEMOGLOBIN: 24.63 pg
  MEAN CORPUSCULAR HEMOGLOBIN CONCENTRATION: 39.9 G/DL
  MEAN CORPUSCULAR VOLUME: 61.87 fL
  MONOCYTE: 0%
  NEUTROPHIL: 13%
  NUCLEATED RED BLOOD CELLS: 0 /100WBC
  PLATELET COUNT: 1147.67 x10E3/uL
  ALANINE AMINOTRANSFERASE: 54.33 u/L
  ALBUMIN: 4.27 G/DL
  ALKALINE PHOSPHATASE: 454.67 u/L
  ASPARTATE AMINOTRANSFERASE: 86.67 u/L
  BLOOD UREA NITROGEN: 11.67 mg/dL
  CARBON DIOXIDE: 27 mmol/L
  CHLORIDE: 101.33 MEQ/L
  CHOLESTEROL: 63.33 mg/dL
  CREATINE PHOSPHOKINASE: 239.33 u/L
  CREATININE: 0.2 mg/dL
  GLUCOSE: 154 mg/dL
  LACTATE DEHYDROGENASE: 176.67 u/L
  LIPASE: 10 u/L
  PHOSPHORUS: 11.33 mg/dL
  POTASSIUM: 6.56 MEQ/L
  SODIUM: 143.2 MEQ/L
  TOTAL BILIRUBIN: 0.17 mg/dL
  TOTAL PROTEIN: 5.87 G/DL
  URIC ACID: 1.7 mg/dL
